From patent publication US6872805B2 (Bristol-Myers Squibb Company, priority 2000, dated 2005)

Assays:
[1] = In vivo rat PK studies (systemic and liver exposure); parameters: species or system male Sprague Dawley rats; settings: dosed orally or intravenously
Procedure: All animal experimentation was conducted in accordance with USDA guidelines under the Animal Welfare Act. To assess the systemic and liver exposure, representative compounds were orally (gastric intubation) or intravenously (bolus or infusion) administered to male Sprague Dawley rats bearing indwelling jugular vein cannulae. At pre-determined times after dosing, serial blood samples were taken from the implanted cannulae. Plasma was separated from EDTA-treated blood by centrifugation and stored at −20° C. until analysis. The liver was removed from rats after carbon dioxide asphyxiation, rinsed with saline and blotted dry. For analysis, a 2 g portion of the outer part of one lobe was minced and homogenized with 4 ml of 80% acetonitrile/HBSS buffer. After centrifugation, the supernatant was kept at −20° C. until analysis. Quantitation of represenatative compounds in plasma and liver homogenate samples was performed by a specific LC/MS/MS method optimized for each compound.

[2] = biological target: T1, porcine pancreatic elastase (Sus scrofa, UniProt P00772); assay: Specificity assay, porcine pancreatic elastase; type: biochemical; settings: read-out: PPE
T1 construct: from tissue; host or cells: pancreas (from the enzyme's name only)
Procedure: (§1) The specificities of compounds of the present invention were determined against a variety of serine proteases: human leukocyte elastase, porcine pancreatic elastase and bovine pancreatic α-chymotrypsin and one cysteine protease: human liver cathepsin B. In all cases a 96-well plate format protocol using calorimetric […] (pNA) substrate specific for each enzyme was used as described previously (Patent WO 00/09543) with some modifications.
(§2) Each assay included a 1 h enzyme-inhibitor pre-incubation at RT followed by addition of substrate and hydrolysis to ˜30% conversion as measured on a Spectramax Pro microplate reader. Compound concentrations varied from 100 to 0.4 μM depending on their potency.
(§3) The final conditions and protocol for each assay was as reported previously (Patent WO 00/09543) with the inclusion of an additional assay: • 50 mM Tris-HCl pH 8, 0.5M Na2SO4, 50 mM NaCl, 0.1 mM EDTA, 3% DMSO, 0.01% Tween-20 with 133 μM succ-AAA-PNA and 20 nM Elastase
(§4) The percentage of inhibition was calculated using the formula: [1−((UVinh−UVblank)/(UVctl−UVblank))]×100

[3] = biological target: T2, NS3/4A H77C strain (Hepatitis C virus genotype 1a, UniProt P27958, C1454S); assay: Recombinant HCV NS3/4A protease complex FRET peptide assay, H77C strain; type: biochemical, HCV genotype 1a
T2 construct: DNA encoding the recombinant HCV NS3/4A protease complex (amino acid 1027 to 1711) for these strains; inferred from pET21b vector and Ni-NTA purification; made in house; host or cells: E. coli BL21 (DE3)
Excerpt: The purpose of this in vitro assay was to measure the inhibition of HCV NS3 protease complexes, derived from the BMS, H77C or J416S strains, as described below, by compounds of the present invention. This assay provides an indication of how effective compounds of the present invention would be in inhibiting HCV […] proteolytic activity.
Serum from an HCV-infected patient was obtained from Dr. T. Wright, San Francisco Hospital. An engineered full-length cDNA template of the HCV genome (BMS strain) was constructed from DNA fragments obtained by reverse transcription-PCR (RT-PCR) of serum RNA and using primers selected on the basis of homology between other genotype 1a strains. From the determination of the entire genome sequence, a genotype 1a was assigned to the HCV isolate according to the classification of Simmonds et al. (See P Simmonds, K A Rose, S Graham, S W Chan, F McOmish, B C Dow, E A Follett, P L Yap and H Marsden, J. Clin. Microbiol., 31(6), 1493-1503 (1993)). […] The infectious clones, H77C (1a genotype) and J4L6S (1b genotype) were obtained from R. Purcell (NIH) and the sequences are published in genebank (AAB67036, see Yanagi, M., Purcell, R. H., Emerson, S. U. and Bukh, J. Proc. Natl. Acad. Sci. U.S.A. 94(16),8738-8743 (1997); AF054247, see Yanagi, M., St Claire, M., Shapiro, M., Emerson, S. U., Purcell, R. H. and Bukh, J, Virology 244 (1), 161-172. (1998)). […]

[4] = biological target: T3, bovine pancreatic α-chymotrypsin (Bos taurus, UniProt P00766); assay: Specificity assay, bovine pancreatic α-chymotrypsin; type: biochemical
T3 construct: from tissue; host or cells: pancreas (from the enzyme's name only)
Procedure: as §1, §2, §3, §4

T2 sequence (P27958 1027-1657 C1454S): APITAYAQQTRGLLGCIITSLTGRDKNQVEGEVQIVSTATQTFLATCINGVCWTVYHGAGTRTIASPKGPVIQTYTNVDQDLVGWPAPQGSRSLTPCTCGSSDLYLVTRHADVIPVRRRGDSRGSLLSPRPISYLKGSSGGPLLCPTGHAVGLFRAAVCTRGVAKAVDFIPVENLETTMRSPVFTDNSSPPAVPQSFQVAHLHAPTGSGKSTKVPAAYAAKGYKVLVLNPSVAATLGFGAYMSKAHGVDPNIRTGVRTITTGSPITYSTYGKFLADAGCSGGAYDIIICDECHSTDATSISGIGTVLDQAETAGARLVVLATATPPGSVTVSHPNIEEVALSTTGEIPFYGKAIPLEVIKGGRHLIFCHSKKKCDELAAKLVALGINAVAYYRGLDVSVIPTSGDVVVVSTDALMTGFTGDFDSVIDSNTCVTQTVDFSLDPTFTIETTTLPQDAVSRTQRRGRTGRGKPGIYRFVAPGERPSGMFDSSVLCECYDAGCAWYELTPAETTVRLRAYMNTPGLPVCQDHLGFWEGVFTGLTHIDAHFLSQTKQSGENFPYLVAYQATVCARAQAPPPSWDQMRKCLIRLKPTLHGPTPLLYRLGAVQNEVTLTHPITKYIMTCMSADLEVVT
T2 sequence (P27958 1658-1711 partner, looked up, stated change not applied): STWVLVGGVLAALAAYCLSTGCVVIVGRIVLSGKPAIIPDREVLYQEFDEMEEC
T1 sequence (P00772 27-266): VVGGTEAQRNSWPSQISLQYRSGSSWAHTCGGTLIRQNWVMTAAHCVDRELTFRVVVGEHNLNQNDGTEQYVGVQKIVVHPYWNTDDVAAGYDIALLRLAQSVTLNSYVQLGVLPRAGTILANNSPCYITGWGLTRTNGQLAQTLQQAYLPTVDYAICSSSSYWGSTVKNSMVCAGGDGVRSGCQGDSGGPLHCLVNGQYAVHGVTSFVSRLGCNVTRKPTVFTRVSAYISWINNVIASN

With `C=CC1C[C@]1(NC(=O)[C@@H]1C[C@@H](Oc2cc(-c3ccccc3)nc3cc(OC)ccc23)CN1C(=O)C(NC(=O)OC(C)(C)C)C(C)(C)C)C(=O)NS(=O)(=O)c1ccc(NC(C)=O)cc1` (stereo partly shown) [Compound 58] the viral target exposure [1] was “viral target exposure was achieved”, the IC50 [2] was over 100 µM and the IC50 [3] was 10 nM. It also gave an IC50 [4] of over 100 µM.
